Laboratory results published in publication PMC9120017, “Inhibition mechanism of the chloride channel TMEM16A by the pore blocker 1PBC” (Nature Communications, 2022).
Read-outs that look alike come from different tables or passages of the source.

Biological target: T1, mouse TMEM16A mutant I636A (Mus musculus, UniProt Q8BHY3, I636A)
T1 construct: expressed in transfected cells; host or cells: HEK293T
T1 sequence (Q8BHY3 1-960 I636A): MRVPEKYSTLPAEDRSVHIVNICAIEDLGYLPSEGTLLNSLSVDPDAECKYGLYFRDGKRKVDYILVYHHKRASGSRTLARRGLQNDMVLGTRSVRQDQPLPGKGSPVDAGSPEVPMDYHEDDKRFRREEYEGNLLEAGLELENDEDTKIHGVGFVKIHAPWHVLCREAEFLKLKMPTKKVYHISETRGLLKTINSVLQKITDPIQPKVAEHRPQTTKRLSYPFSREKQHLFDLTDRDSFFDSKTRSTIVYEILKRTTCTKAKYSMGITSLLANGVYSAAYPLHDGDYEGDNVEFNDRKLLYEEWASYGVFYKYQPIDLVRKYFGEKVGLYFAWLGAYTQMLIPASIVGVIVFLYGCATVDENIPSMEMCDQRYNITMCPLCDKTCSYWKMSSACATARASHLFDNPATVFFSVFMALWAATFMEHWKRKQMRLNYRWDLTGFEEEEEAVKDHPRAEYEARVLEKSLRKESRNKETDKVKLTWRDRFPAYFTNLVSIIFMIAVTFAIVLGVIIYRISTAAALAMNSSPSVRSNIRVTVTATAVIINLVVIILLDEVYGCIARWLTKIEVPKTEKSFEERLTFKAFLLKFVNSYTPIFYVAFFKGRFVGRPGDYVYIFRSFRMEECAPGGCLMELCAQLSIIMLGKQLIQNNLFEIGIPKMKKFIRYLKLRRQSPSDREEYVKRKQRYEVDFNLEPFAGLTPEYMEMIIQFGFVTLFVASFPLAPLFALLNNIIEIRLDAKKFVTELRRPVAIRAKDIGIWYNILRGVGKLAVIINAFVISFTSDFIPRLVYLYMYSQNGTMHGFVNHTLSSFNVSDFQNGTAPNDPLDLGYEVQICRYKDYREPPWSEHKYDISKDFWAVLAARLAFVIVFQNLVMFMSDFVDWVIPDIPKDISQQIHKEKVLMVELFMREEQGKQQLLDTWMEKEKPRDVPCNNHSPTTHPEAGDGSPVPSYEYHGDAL
Assay: Inside-out patch recording of 1PBC block, mutant I636A
Type: cell-based
Details: for remaining activity at 3 µM: 1PBC conc 3; for remaining activity at 3 µM / remaining activity at 10 µM / remaining activity at 30 µM / remaining activity at 100 µM: read-out: relative current in 1PBC (avr); for remaining activity at 10 µM: 1PBC conc 10; for remaining activity at 30 µM: 1PBC conc 30; for remaining activity at 100 µM: 1PBC conc 100
Method: HEK293T cells (ATCC CRL-1573) were maintained in Dulbecco’s modified Eagle’s medium (DMEM; Sigma-Aldrich) supplemented with 10 U ml^−1 penicillin, 0.1 mg ml^−1 streptomycin (Sigma-Aldrich), 2 mM L-glutamine (Sigma-Aldrich), and 10% FBS (Sigma-Aldrich) in a humidified atmosphere containing 5% CO2 at 37 °C. HEK293S GnTI^− cells (ATCC CRL-3022) were maintained in HyClone HyCell TransFx-H medium (GE Healthcare) supplemented with 10 U ml^−1 penicillin, 0.1 mg ml^−1 streptomycin, 4 mM L-glutamine, 0.15% poloxamer 188 (Sigma-Aldrich), and 1% FBS in an atmosphere containing 5% CO2 at 185 rpm at 37 °C. The ac splice variant of mouse TMEM16A (UniProt ID: Q8BHY3), mouse TMEM16B (UniProt ID: Q8CFW1), or mouse TMEM16F (UniProt ID: Q6P9J9) bearing a 3C cleavage site, a Venus YFP, a Myc tag, and a Streptavidin-binding peptide (SBP) downstream of the open reading frame in a modified pcDNA3.1 vector (Invitrogen) were used as described previously[21],[31]. Mutations were introduced using a modified QuikChange method[58] and were verified by sequencing.
HEK293T cells were transfected with 3–4 μg DNA per 6 cm Petri dish using the calcium phosphate co-precipitation method and were used within 24–96 h after transfection. Recordings were performed on inside-out patches excised from HEK293T cells expressing the construct of interest. Patch pipettes were pulled from borosilicate glass capillaries (O.D. 1.5 mm, I.D. 0.86 mm, Sutter Instrument) and were fire-polished with a microforge (Narishige) before use. Pipette resistance was typically 3–8 MΩ when filled with the recording solutions detailed below. Seal resistance was typically 4 GΩ or higher. Voltage-clamp recordings were made using Axopatch 200B, Digidata 1550, and Clampex 10.7 (Molecular Devices). Analog signals were filtered with the in-built 4-pole Bessel filter at 10 kHz and were digitized at 20 kHz. Solution exchange was achieved using a gravity-fed system through a theta glass pipette mounted on an ultra-fast piezo-driven stepper (Siskiyou). […] All recordings were performed at 20 °C.
A symmetrical ionic condition was used throughout. Stock solution with Ca^2+-EGTA contained 150 mM NaCl, 5.99 mM Ca(OH)2, 5 mM EGTA, and 10 mM HEPES at pH 7.40. Stock solution with EGTA contained 150 mM NaCl, 5 mM EGTA, and 10 mM HEPES at pH 7.40. Free Ca^2+ concentrations were adjusted by mixing the stock solutions at the required ratios calculated using the WEBMAXC program (http://web.stanford.edu/~cpatton/webmaxcS.htm). Patch pipettes were filled with the stock solution with Ca^2+-EGTA, which has a free Ca^2+ concentration of 1 mM. 1PBC (ChemBridge) stock was reconstituted in anhydrous DMSO (Sigma-Aldrich) at 100 mM and stored at −20 °C. Working solutions with 1PBC were prepared by serial dilution. Unless otherwise stated, experiments were performed at a saturating Ca^2+ concentration as shown in Supplementary Table 1 and the primary data were corrected for current rundown as described previously[21],[25].
Concentration-response relations, obtained from the ratio of the I-V plots before and after the application of the blocker, were fitted to the Hill equation,1 I/Imax=1/1+IC50/[blocker]^h where I/Imax is the normalized current responses, IC50 defines the concentration at which inhibition is at its half-maximum, and h is the Hill coefficient.

IC50 (0 mV, 15 µM Ca2+): 6.73 µM
remaining activity at 3 µM (0 mV): 68.4%
remaining activity at 10 µM (0 mV): 39.2%
remaining activity at 30 µM (0 mV): 19.6%
remaining activity at 100 µM (0 mV): 9.71%
IC50 (20 mV, 15 µM Ca2+): 5.47 µM
remaining activity at 3 µM (20 mV): 63.6%
remaining activity at 10 µM (20 mV): 34.4%
remaining activity at 30 µM (20 mV): 17.1%
remaining activity at 100 µM (20 mV): 9.23%
IC50 (40 mV, 15 µM Ca2+): 4.65 µM
remaining activity at 3 µM (40 mV): 60.6%
remaining activity at 10 µM (40 mV): 30.8%
remaining activity at 30 µM (40 mV): 15.1%
remaining activity at 100 µM (40 mV): 5.83%
IC50 (60 mV, 15 µM Ca2+): 4.03 µM
remaining activity at 3 µM (60 mV): 56.6%
remaining activity at 10 µM (60 mV): 27.9%
remaining activity at 30 µM (60 mV): 14.3%
remaining activity at 100 µM (60 mV): 6.18%
log-fold IC50 (change of mutant vs WT) (80 mV): 0.2863
IC50 (80 mV, 15 µM Ca2+): 3.83 µM
remaining activity at 3 µM (80 mV): 55.6%
remaining activity at 10 µM (80 mV): 26.8%
remaining activity at 30 µM (80 mV): 13.6%
remaining activity at 100 µM (80 mV): 5.37%
IC50 (100 mV, 15 µM Ca2+): 3.89 µM
remaining activity at 3 µM (100 mV): 55.3%
remaining activity at 10 µM (100 mV): 27%
remaining activity at 30 µM (100 mV): 15.6%
remaining activity at 100 µM (100 mV): 5.12%
IC50 (120 mV, 15 µM Ca2+): 4.05 µM
remaining activity at 3 µM (120 mV): 56.6%
remaining activity at 10 µM (120 mV): 27.6%
remaining activity at 30 µM (120 mV): 16%
remaining activity at 100 µM (120 mV): 4.9%
IC50 (140 mV, 15 µM Ca2+): 4.5 µM
remaining activity at 3 µM (140 mV): 58.9%
remaining activity at 10 µM (140 mV): 29.8%
remaining activity at 30 µM (140 mV): 17.2%
remaining activity at 100 µM (140 mV): 5.22%
IC50 (-20 mV, 15 µM Ca2+): 8.22 µM
remaining activity at 3 µM (-20 mV): 73.2%
remaining activity at 10 µM (-20 mV): 44.1%
remaining activity at 30 µM (-20 mV): 22.1%
remaining activity at 100 µM (-20 mV): 10.2%
IC50 (-40 mV, 15 µM Ca2+): 10.2 µM
remaining activity at 3 µM (-40 mV): 77.7%
remaining activity at 10 µM (-40 mV): 49.5%
remaining activity at 30 µM (-40 mV): 25.2%
remaining activity at 100 µM (-40 mV): 11%
IC50 (-60 mV, 15 µM Ca2+): 12.5 µM
remaining activity at 3 µM (-60 mV): 81.7%
remaining activity at 10 µM (-60 mV): 54.6%
remaining activity at 30 µM (-60 mV): 29.3%
remaining activity at 100 µM (-60 mV): 11.8%
IC50 (-80 mV, 15 µM Ca2+): 16 µM
remaining activity at 3 µM (-80 mV): 85.2%
remaining activity at 10 µM (-80 mV): 60.7%
remaining activity at 30 µM (-80 mV): 34%
remaining activity at 100 µM (-80 mV): 16.3%
IC50 (-100 mV, 15 µM Ca2+): 19.2 µM
remaining activity at 3 µM (-100 mV): 87.8%
remaining activity at 10 µM (-100 mV): 65.1%
remaining activity at 30 µM (-100 mV): 37.6%
remaining activity at 100 µM (-100 mV): 18.6%
IC50 (-120 mV, 15 µM Ca2+): 23.6 µM
remaining activity at 3 µM (-120 mV): 90.9%
remaining activity at 10 µM (-120 mV): 69.5%
remaining activity at 30 µM (-120 mV): 41.8%
remaining activity at 100 µM (-120 mV): 22.1%
IC50 (-140 mV, 15 µM Ca2+): 27.8 µM
remaining activity at 3 µM (-140 mV): 92.3%
remaining activity at 10 µM (-140 mV): 72.1%
remaining activity at 30 µM (-140 mV): 45.6%
remaining activity at 100 µM (-140 mV): 25.9%
IC50 (I636A, V 0 mV): 6.73 µM
IC50 (I636A, V 20 mV): 5.47 µM
IC50 (I636A, V 40 mV): 4.65 µM
IC50 (I636A, V 60 mV): 4.03 µM
IC50 (I636A, V 80 mV): 3.83 µM
IC50 (I636A, V 100 mV): 3.89 µM
IC50 (I636A, V 120 mV): 4.05 µM
IC50 (I636A, V 140 mV): 4.5 µM
IC50 (I636A, V -20 mV): 8.22 µM
IC50 (I636A, V -40 mV): 10.2 µM
IC50 (I636A, V -60 mV): 12.5 µM
IC50 (I636A, V -80 mV): 16 µM
IC50 (I636A, V -100 mV): 19.2 µM
IC50 (I636A, V -120 mV): 23.6 µM
IC50 (I636A, V -140 mV): 27.8 µM
Structure (SMILES): N#Cc1c(C(F)(F)F)cc(O)n2c1nc1ccccc12 [1PBC]
